From a melting point compilation (Tetko et al.; mined from patent text by program, amines drawn as free bases though some values may be those of a salt)

Compared with `CN1C(=O)CN(CCc2ccccc2)C1=O`, `CCC(=O)Nc1nc(C)c(C(=O)NCc2ccccc2)s1` is higher in melting point: 113 to 114 °C for the first, 175 to 176 °C for the second.

Compared with `CC(C)c1ccc(N(Cc2ccc(O)cc2)C(=O)C2CCCc3c(O)cccc32)cc1` (stereo unspecified), `COc1ccc(C(=O)c2ccc3cc(C(=O)c4ccc(OC)cc4)ccc3c2)cc1` is higher in melting point: 241 to 243 °C for the first, 251 °C for the second.

First: COc1nc(C)nc(NC(=O)NS(=O)(=O)c2ccccc2C=CCC#N)n1
Second: O=CNc1nc(OCc2ccccc2)ncc1F
The melting point of the first is lower: 142 to 143 °C for the first, 153 to 157 °C for the second.

Compared with `CCCCCCCCCCCCCCCCSCC(CN)NC(=O)OC(C)(C)C` (stereo unspecified), `CCCCCCCCCCCCCCCCCCOc1cc(N)cc(C(N)=O)c1` is higher in melting point: 46 to 47 °C for the first, 139 to 143 °C for the second.

First: CCCCc1nnc(-c2ccco2)n1Cc1ccc([N+](=O)[O-])cc1
Second: CCCCc1nc(C(C)(C)O)c(C(=O)O)n1Cc1ccc(-c2ccccc2-c2nnn[nH]2)cc1
The melting point of the first is lower: 91 to 92.5 °C for the first, 138 to 141 °C for the second.

First: O=Cc1ccc2c(c1)N(C1CCN(CCc3ccccc3F)CC1)CC2
Second: O=C(NC1CCc2ccccc2CC1=O)OCc1ccccc1 (stereo unspecified)
The melting point of the first is lower: 86 to 87 °C for the first, 119 to 121 °C for the second.

First: N#Cc1nc2c(nc1N)CCCC2
Second: Cc1ccc(-c2ncc3c(n2)CCCC3)nc1-c1ccc(C=O)cc1
The melting point of the first is higher: 200 to 202 °C for the first, 151 to 154 °C for the second.

Compared with `C=CCC(C)(C)C(NC(=O)c1ccc(Cl)cc1)Nc1c(Nc2cccnc2)c(=O)c1=O` (stereo unspecified), `Cc1nc(-n2cnn(CCOCc3ccc(F)cc3)c2=O)sc1C(=O)NCc1cccnc1` is lower in melting point: 242 to 243 °C for the first, 235 to 236 °C for the second.

`Nc1cc(Cl)c(NCCO)cc1[N+](=O)[O-]` and `Cc1nc2c(c(-c3cccc([N+](=O)[O-])c3)c1C(=O)OCCO)C(=O)OC2` cannot be ordered by melting point: 130 to 131 °C for the first, 130 °C for the second.

First: CCOC(=O)Nc1nc(Cc2ccccc2)c(C(=O)c2sc(NC(=O)OCC)nc2Cc2ccccc2)s1
Second: CC(C)C[C@H](NC(=O)[C@H](Cc1ccccc1)NP(=O)(OCc1ccccc1)OCc1ccccc1)C(=O)O
The melting point of the first is higher: 145 to 146 °C for the first, 90 to 92 °C for the second.

First: Cn1cc(C2=C(c3ccsc3)C(=O)NC2=O)c2ccccc21
Second: Cn1cc(-c2cc3cccnc3[nH]2)c2cc(CCC(=O)O)ccc21
The melting point of the first is lower: 211 to 212 °C for the first, 268 to 270 °C for the second.

Compared with `NC(=O)C1(c2ccccc2)CCN(CCC2(c3ccc(Cl)c(Cl)c3)CCN(C(=O)c3ccccc3)C2)CC1` (stereo unspecified), `Cc1ncc([N+](=O)[O-])n1CCN1C(=O)NC(c2ccccc2)(c2ccccc2)C1=O` is higher in melting point: 87 to 90 °C for the first, 209 to 210 °C for the second.

Compared with `C=C(C)CN1C(=O)c2ccccc2Oc2ncccc21`, `CC1=C(c2ccncc2)SC(Nc2ccccc2)C(=O)N1` (stereo unspecified) is higher in melting point: 106 to 107 °C for the first, 162 to 165 °C for the second.

First: CC(=O)Nc1ccc(F)cc1C(=O)O
Second: CCCc1c(OCCCOc2ccc(C(=O)O)cc2F)ccc(C(C)=O)c1OC(C)=O
The melting point of the first is higher: 168 to 170 °C for the first, 144 to 145 °C for the second.

First: CCOC(=O)c1[nH]cc(-c2ccc(F)cc2)c1C(C)C
Second: CCOC(=O)c1cnn(-c2ccc(N)cc2)c1C(F)(F)F
The melting point of the first is lower: 94 to 97 °C for the first, 102 to 103 °C for the second.

Compared with `CC1Cc2c(N3C(=O)C4CCCCN4C3=O)ccc(Cl)c2O1` (stereo unspecified), `O=C(NCCC1CCCCC1)c1c(Cl)ccc2nc(N3CCC(C(=O)O)CC3)ccc12` is higher in melting point: 145 to 148 °C for the first, 253 to 256 °C for the second.

First: CC=CC(=O)NCCc1ccc(S(=O)(=O)N2CCN(C3CCCCC3)C2=N)cc1
Second: CC(C)(C)OC(=O)N1CCC(CCN2C(=O)c3ccccc3C2=O)CC1
The melting point of the first is higher: 157 to 158 °C for the first, 112 to 114 °C for the second.

First: O=[N+]([O-])c1ccc(N2CCN(CCCCCCCCCCCO)CC2)cc1
Second: COCCCCCCCCCCCC(N)=S
The melting point of the first is higher: 118 °C for the first, 86.8 to 89.2 °C for the second.

First: CS(=O)(=O)OC[C@@H]1NC(=O)[C@@H]1n1c(-c2ccccc2)c(-c2ccccc2)oc1=O (relative stereo)
Second: Cc1cccc(NC(=O)NC2N=C(c3ccccc3)c3ccccc3N(Cc3cc(C)ccn3)C2=O)c1 (racemic)
The melting point of the first is lower: 185 to 188 °C for the first, 212 to 213 °C for the second.

First: COCc1nc2c(N)cc(Br)cc2n1C
Second: Cc1ccc2c(=O)c(CS(C)(=O)=O)cn(C)c2c1
The melting point of the first is lower: 138 to 140 °C for the first, 193 to 195 °C for the second.

Compared with `Cc1ccc(-c2cc3cc(C=O)ccc3o2)cc1`, `Cc1ccc(-c2nccc(C)n2)cc1` is lower in melting point: 162 to 164 °C for the first, 80 to 81 °C for the second.

First: O=C(c1ccc2ccccc2c1)P1(=O)Oc2ccccc2-c2ccccc21 (stereo unspecified)
Second: O=C1OC(=O)c2cc3cc(O)ccc3cc21
The melting point of the first is lower: 151 to 153 °C for the first, 266 °C for the second.

First: CCCc1c(OCCCCCC(=O)c2ccc3cc(O)c(O)cc3c2)ccc(C(=O)OCC)c1O
Second: CCCCCCOP(=O)(OCCCCCC)c1ccc(NC(=O)c2cccc([N+](=O)[O-])c2)cc1
The melting point of the first is higher: 170 to 172 °C for the first, 98 °C for the second.

First: COC(=O)c1ccc2c(c1)Sc1ccccc1CC2Br (stereo unspecified)
Second: COc1ccccc1COC(=O)C(O)CNCCc1ccc(OC)c(OC)c1 (stereo unspecified)
The melting point of the first is higher: 116 to 123 °C for the first, 79.5 to 82.5 °C for the second.

Compared with `C=CCC1(O)CCC2C3CCC4=CC(=O)CCC4C3CCC21CCC` (stereo unspecified), `C=CCN1C2CCC1C1CCC2N1C(c1ccc(C(=O)N2CCCC2)cc1)c1cccc(O)c1` (stereo unspecified) is higher in melting point: 135 to 137 °C for the first, 156 to 158 °C for the second.

First: O=C(O)Cc1sc(NC(=O)c2cc(Br)ccc2O)nc1-c1ccccc1
Second: O=C(CN1CCCC1=O)Nc1ccc(-c2ncc(C(=O)O)c(O)n2)cc1
The melting point of the first is lower: 284 to 286 °C for the first, > 320 °C for the second.

First: Cc1oc(-c2ccccc2)nc1CCc1ccc(CCCCCC2OC(=O)NC2=O)cc1 (stereo unspecified)
Second: Cn1c(C(F)(F)F)cc(=O)n(-c2ccc3snc(-c4nc5ccccc5[nH]c4=O)c3c2)c1=O
The melting point of the first is lower: 116 to 117 °C for the first, > 250 °C for the second.

Compared with `OC(c1cccnc1)c1c[nH]c2ccc(F)cc12` (stereo unspecified), `N#Cc1ccc(Cn2c(=O)c(C#N)c(N3CCN(C(=O)c4cccs4)CC3)c3cccnc32)cc1` is higher in melting point: 131 to 133 °C for the first, 241 °C for the second.

Compared with `CC(C)n1cc(C2CCC(=O)CC2)c2cc(C#N)ccc21`, `COc1ccc(-c2ccc3c(c2)CCCC3=O)c2c1OCCO2` is higher in melting point: 106 to 107 °C for the first, 156 to 158 °C for the second.

First: C=Cc1cccc(N2CC(CNC(=O)OC(C)(C)C)C2)n1
Second: CCOC(=O)c1cc2c3n(ccc-2n1)C([N+](=O)[O-])C(C)=N3 (stereo unspecified)
The melting point of the first is lower: 85 to 87 °C for the first, 300 to 302 °C for the second.

Compared with `COC(=O)c1cc(S)cc(S)c1`, `CCCCOc1cc(C(=O)O)n(Cc2ccc(C(F)(F)F)cc2Cl)n1` is higher in melting point: 61 to 62 °C for the first, 158 to 160 °C for the second.

First: CCCc1cnn2c(O)cc(CC)nc12
Second: CCOCCn1c(N(Cc2ccccc2)C2CCN(C(=O)OCC)CC2)nc2cccnc21
The melting point of the first is higher: 279 to 281 °C for the first, 115 °C for the second.

First: CCN(CC)c1ccc(C=C2CCCC(=Cc3ccc(N(CC)CC)cc3)C2=O)cc1
Second: CSc1noc(-c2ccc(OCCOc3ccc(Br)cc3)cc2)c1C#N
The melting point of the first is higher: 167 °C for the first, 156 to 157 °C for the second.

First: FC(F)Sc1nnc(-c2ccc(Cl)cc2)s1
Second: CCCC1CCC(c2ccc(-c3cc(F)c(C(F)(F)Oc4cc(F)c(C(F)(F)F)c(F)c4)c(F)c3)c(F)c2)OC1 (stereo unspecified)
The melting point of the first is lower: 74 to 76 °C for the first, 95 °C for the second.

Compared with `CCC(=S)C1Cc2c(OC)ccc(OC)c2CO1` (stereo unspecified), `O=C(C=CCN1CCN(C[C@H]2CCC(=O)O2)CC1)Nc1cc2c(Nc3ccc(F)c(Cl)c3)ncnc2cc1OCC1CC1` is higher in melting point: 99.2 °C for the first, 145 to 150 °C for the second.

`CCCCCNS(N)(=O)=O` showed a melting point of 60 to 63 °C.
